Measurements from patent US9763445B2, “Safened herbicidal compositions comprising a pyridine carboxylic acid herbicide” (Dow AgroSciences, LLC, priority 2014, dated 2017).

Assays:
winter wheat (TRZAW) = experiment: Postemergence greenhouse trial, % visual injury on winter wheat; assay type: in vivo, Triticum aestivum; conditions: TRZAW
Description: (§1) Seeds of the desired test plant species were planted in Sun Gro MetroMix® 306 planting mixture, which typically has a pH of 6.0 to 6.8 and an organic matter content of about 30 percent, in plastic pots with a surface area of 103.2 square centimeters (cm^2). When required to ensure good germination and healthy plants, a fungicide treatment and/or other chemical or physical treatment was applied. The plants were grown for 7-36 days (d) in a greenhouse with an approximate 14-hour (h) photoperiod which was maintained at about 23° C. during the day and 22° C. during the night. Nutrients and water were added on a regular basis and supplemental lighting was provided with overhead metal halide 1000-Watt lamps as necessary. The plants were employed for testing when they reached the second or third true leaf stage.
(§2) Weighed amounts of technical material were dissolved in a volume of 97:3 volume per volume (v/v) acetone/dimethyl sulfoxide (DMSO) to stock solutions. […] The concentrated stock solutions were diluted with an aqueous mixture of 1.5% v/v of Agri-dex crop oil concentrate to provide the appropriate application rates. Compound requirements are based upon a 12 milliliter (mL) application volume at a rate of 187 liters per hectare (L/ha). Stocks solutions of the safeners were prepared following the same procedure. Spray solutions of the safeners and experimental compound mixtures were prepared by adding the stock solutions to the appropriate amount of dilution solution to form a 12 mL spray solution in two-way combinations. Formulated compounds were applied to the plant material with an overhead Mandel track sprayer equipped with 8002E nozzles calibrated to deliver 187 L/ha over an application area of 0.503 square meters (m^2) at a spray height of 18 inches (43 centimeters (cm)) above average plant canopy. Control plants were sprayed in the same manner with the solvent blank. All herbicide application (component a) rates are in g ae/ha and all safener (component b) rates are in g ai/ha.
(§3) The treated plants and control plants were placed in a greenhouse as described above and watered by sub-irrigation to prevent wash-off of the test compounds. After 20-22 d, the condition of the test plants as compared with that of the control plants was determined visually and scored on a scale of 0 to 100 percent where 0 corresponds to no injury and 100 corresponds to complete kill. The condition of the test plants was compared with that of the control plants as determined visually and scored on a scale of 0 to 100 percent, where 0 corresponds to no injury and 100 corresponds to complete kill. Colby's equation was used to determine the herbicidal effects expected from the mixtures.
The safener cloquintocet-mexyl was combined with compound 1, compound 2, compound 3, compound 7, compound 8, compound 9, compound 10, compound 11, compound 12, compound 13, compound 14, compound 15, compound 16, compound 17, compound 18, compound 19, and compound 20, and applied to spring wheat (TRZAS), winter wheat (TRZAW), and spring barley (HORVS) and the phytotoxicity of the herbicidal compositions was measured. […]

corn/maize (ZEAMX) = experiment: Postemergence greenhouse trial, % visual injury on corn/maize; assay type: in vivo, Zea mays; conditions: ZEAMX
Description: as §1, §2, §3
(§4) The safener cloquintocet-mexyl was combined with compound 1, compound 2, compound 4, compound 5, and compound 6, and applied to corn/maize (ZEAMX) and spring wheat (TRZAS) and the phytotoxicity of the herbicidal compositions was measured. In addition, the efficacy of the herbicidal composition on velvetleaf (ABUTH, Abutilon theophrasti), pigweed (AMARE, Amaranthus retroflexus), winter rape (BRSNW, Brassica napus), lambsquarters (CHEAL, Chenopodium album), thistle (CIRAR, Cirsium arvense), nutsedge (CYPES, Cyperus esculentus), poinsettia (EPHHL, Euphorbia heterophylla), wild buckwheat (POLCO, Polygonum convolvulus), giant foxtail (SETFA, Setaria faberi), and chickweed (STEME, Stellaria media) was evaluated. […]

common sorghum (SORVU) = experiment: Postemergence greenhouse trial, % visual injury on common sorghum; assay type: in vivo, Sorghum vulgare; conditions: SORVU
Description: as §1, §2
as §3, with “mixtures. […]” for “mixtures.”
(§5) The safener cloquintocet-acid and a number of agriculturally acceptable esters and salts (-mexyl, -dimethylammonium salt and -triethylammonium salt) were combined in varying ratios with compound 1 and applied to spring wheat (TRZAS), winter wheat (TRZAW), and spring barley (HORVS), and the phytotoxicity of the herbicidal compositions was measured. In addition, the efficacy of the herbicidal composition on pigweed (AMARE, Amaranthus retroflexus), nutsedge (CYPES, Cyperus esculentus), common sunflower (HELAN, Helianthus annuus), and common sorghum (SORVU, Sorghum vulgare).

pigweed (AMARE) = experiment: Postemergence greenhouse trial, % visual injury on pigweed; assay type: in vivo, Amaranthus retroflexus; conditions: AMARE
Description: as §1, §2, §3, §4
(§6) The safener cloquintocet-acid and a number of agriculturally acceptable esters and salts (-mexyl, -dimethylammonium salt and -triethylammonium salt) were combined in varying ratios with compound 1 and applied to spring wheat (TRZAS), winter wheat (TRZAW), and spring barley (HORVS), and the phytotoxicity of the herbicidal compositions was measured. […]

common sunflower (HELAN) = experiment: Postemergence greenhouse trial, % visual injury on common sunflower; assay type: in vivo, Helianthus annuus
Description: as §1, §2, §3, §5

nutsedge (CYPES) = experiment: Postemergence greenhouse trial, % visual injury on nutsedge; assay type: in vivo, Cyperus esculentus; conditions: CYPES
Description: as §1, §2, §3, §4, §6

Measured: % visual injury, observed (Ob)

CNC.O=C(O)COc1ccc(Cl)c2cccnc12 [CQC-DMA]
0%: winter wheat (TRZAW); safener alone 2.5 g/ha | winter wheat (TRZAW); safener alone 5 g/ha | winter wheat (TRZAW); safener alone 10 g/ha | winter wheat (TRZAW); safener alone 20 g/ha | corn/maize (ZEAMX); safener alone 2.5 g/ha | corn/maize (ZEAMX); safener alone 5 g/ha | corn/maize (ZEAMX); safener alone 10 g/ha | corn/maize (ZEAMX); safener alone 20 g/ha | common sorghum (SORVU); safener alone 2.5 g/ha | common sorghum (SORVU); safener alone 5 g/ha | common sorghum (SORVU); safener alone 10 g/ha | common sorghum (SORVU); safener alone 20 g/ha | pigweed (AMARE); safener alone 2.5 g/ha | pigweed (AMARE); safener alone 5 g/ha | pigweed (AMARE); safener alone 10 g/ha | pigweed (AMARE); safener alone 20 g/ha | common sunflower (HELAN); safener alone 2.5 g/ha | common sunflower (HELAN); safener alone 5 g/ha | common sunflower (HELAN); safener alone 10 g/ha | common sunflower (HELAN); safener alone 20 g/ha | nutsedge (CYPES); safener alone 2.5 g/ha | nutsedge (CYPES); safener alone 5 g/ha | nutsedge (CYPES); safener alone 10 g/ha | nutsedge (CYPES); safener alone 20 g/ha

CCN(CC)CC.O=C(O)COc1ccc(Cl)c2cccnc12 [CQC-TEA]
0%: winter wheat (TRZAW); safener alone 2.5 g/ha | winter wheat (TRZAW); safener alone 5 g/ha | winter wheat (TRZAW); safener alone 10 g/ha | winter wheat (TRZAW); safener alone 20 g/ha | corn/maize (ZEAMX); safener alone 2.5 g/ha | corn/maize (ZEAMX); safener alone 5 g/ha | corn/maize (ZEAMX); safener alone 10 g/ha | corn/maize (ZEAMX); safener alone 20 g/ha | common sorghum (SORVU); safener alone 2.5 g/ha | common sorghum (SORVU); safener alone 5 g/ha | common sorghum (SORVU); safener alone 10 g/ha | common sorghum (SORVU); safener alone 20 g/ha | pigweed (AMARE); safener alone 2.5 g/ha | pigweed (AMARE); safener alone 5 g/ha | pigweed (AMARE); safener alone 10 g/ha | pigweed (AMARE); safener alone 20 g/ha | common sunflower (HELAN); safener alone 2.5 g/ha | common sunflower (HELAN); safener alone 5 g/ha | common sunflower (HELAN); safener alone 10 g/ha | common sunflower (HELAN); safener alone 20 g/ha | nutsedge (CYPES); safener alone 2.5 g/ha | nutsedge (CYPES); safener alone 5 g/ha | nutsedge (CYPES); safener alone 10 g/ha | nutsedge (CYPES); safener alone 20 g/ha

O=C(O)COc1ccc(Cl)c2cccnc12 [CQC-acid]
0%: winter wheat (TRZAW); safener alone 2.5 g/ha | winter wheat (TRZAW); safener alone 5 g/ha | winter wheat (TRZAW); safener alone 10 g/ha | winter wheat (TRZAW); safener alone 20 g/ha | corn/maize (ZEAMX); safener alone 2.5 g/ha | corn/maize (ZEAMX); safener alone 5 g/ha | corn/maize (ZEAMX); safener alone 10 g/ha | corn/maize (ZEAMX); safener alone 20 g/ha | common sorghum (SORVU); safener alone 2.5 g/ha | common sorghum (SORVU); safener alone 5 g/ha | common sorghum (SORVU); safener alone 10 g/ha | common sorghum (SORVU); safener alone 20 g/ha | pigweed (AMARE); safener alone 2.5 g/ha | pigweed (AMARE); safener alone 5 g/ha | pigweed (AMARE); safener alone 10 g/ha | pigweed (AMARE); safener alone 20 g/ha | common sunflower (HELAN); safener alone 2.5 g/ha | common sunflower (HELAN); safener alone 5 g/ha | common sunflower (HELAN); safener alone 10 g/ha | common sunflower (HELAN); safener alone 20 g/ha | nutsedge (CYPES); safener alone 2.5 g/ha | nutsedge (CYPES); safener alone 5 g/ha | nutsedge (CYPES); safener alone 10 g/ha | nutsedge (CYPES); safener alone 20 g/ha
